Measurements reported in PMC12025681, “Repositioning Fluoxetine as a TRPV3 Channel Inhibitor to Alleviate Skin Inflammation and Pruritus” (Current Issues in Molecular Biology, 2025).

Columns and labels:
TRPM8 (hTRPM8) = TRPM8 (hTRPM8) (Homo sapiens, UniProt Q7Z2W7); assay: whole-cell patch clamp in transfected HEK293T cells (menthol-evoked currents); assay type: cell-based
human TRPV3 (hTRPV3) = target: T1, human TRPV3 (hTRPV3) (Homo sapiens, UniProt Q8NET8); assay: whole-cell patch clamp and inside-out single-channel recording in transfected HEK293T cells (2-APB-evoked currents); assay type: cell-based
T1 sequence (Q8NET8 1-790): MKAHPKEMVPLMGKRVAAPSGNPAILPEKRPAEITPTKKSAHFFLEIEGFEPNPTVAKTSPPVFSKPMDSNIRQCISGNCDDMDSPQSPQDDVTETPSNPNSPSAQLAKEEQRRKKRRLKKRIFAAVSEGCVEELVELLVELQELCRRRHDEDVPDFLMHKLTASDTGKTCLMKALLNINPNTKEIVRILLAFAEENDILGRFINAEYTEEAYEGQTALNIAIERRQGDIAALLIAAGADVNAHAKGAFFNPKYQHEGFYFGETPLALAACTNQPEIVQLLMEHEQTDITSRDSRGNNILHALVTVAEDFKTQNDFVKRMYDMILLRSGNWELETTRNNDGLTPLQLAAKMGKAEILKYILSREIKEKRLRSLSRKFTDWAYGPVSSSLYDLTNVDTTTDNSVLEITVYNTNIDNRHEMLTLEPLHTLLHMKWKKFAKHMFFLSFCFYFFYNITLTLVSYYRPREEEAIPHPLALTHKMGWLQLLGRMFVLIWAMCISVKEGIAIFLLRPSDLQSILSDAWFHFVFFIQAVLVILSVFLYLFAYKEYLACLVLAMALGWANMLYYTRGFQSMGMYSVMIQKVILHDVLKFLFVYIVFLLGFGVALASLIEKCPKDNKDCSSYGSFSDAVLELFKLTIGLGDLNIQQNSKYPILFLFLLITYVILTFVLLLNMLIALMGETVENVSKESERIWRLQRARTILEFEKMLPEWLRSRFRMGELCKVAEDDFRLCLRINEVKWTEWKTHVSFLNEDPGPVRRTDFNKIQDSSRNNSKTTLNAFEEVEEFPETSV

TRPM8 (hTRPM8), sequence (Q7Z2W7 whole entry): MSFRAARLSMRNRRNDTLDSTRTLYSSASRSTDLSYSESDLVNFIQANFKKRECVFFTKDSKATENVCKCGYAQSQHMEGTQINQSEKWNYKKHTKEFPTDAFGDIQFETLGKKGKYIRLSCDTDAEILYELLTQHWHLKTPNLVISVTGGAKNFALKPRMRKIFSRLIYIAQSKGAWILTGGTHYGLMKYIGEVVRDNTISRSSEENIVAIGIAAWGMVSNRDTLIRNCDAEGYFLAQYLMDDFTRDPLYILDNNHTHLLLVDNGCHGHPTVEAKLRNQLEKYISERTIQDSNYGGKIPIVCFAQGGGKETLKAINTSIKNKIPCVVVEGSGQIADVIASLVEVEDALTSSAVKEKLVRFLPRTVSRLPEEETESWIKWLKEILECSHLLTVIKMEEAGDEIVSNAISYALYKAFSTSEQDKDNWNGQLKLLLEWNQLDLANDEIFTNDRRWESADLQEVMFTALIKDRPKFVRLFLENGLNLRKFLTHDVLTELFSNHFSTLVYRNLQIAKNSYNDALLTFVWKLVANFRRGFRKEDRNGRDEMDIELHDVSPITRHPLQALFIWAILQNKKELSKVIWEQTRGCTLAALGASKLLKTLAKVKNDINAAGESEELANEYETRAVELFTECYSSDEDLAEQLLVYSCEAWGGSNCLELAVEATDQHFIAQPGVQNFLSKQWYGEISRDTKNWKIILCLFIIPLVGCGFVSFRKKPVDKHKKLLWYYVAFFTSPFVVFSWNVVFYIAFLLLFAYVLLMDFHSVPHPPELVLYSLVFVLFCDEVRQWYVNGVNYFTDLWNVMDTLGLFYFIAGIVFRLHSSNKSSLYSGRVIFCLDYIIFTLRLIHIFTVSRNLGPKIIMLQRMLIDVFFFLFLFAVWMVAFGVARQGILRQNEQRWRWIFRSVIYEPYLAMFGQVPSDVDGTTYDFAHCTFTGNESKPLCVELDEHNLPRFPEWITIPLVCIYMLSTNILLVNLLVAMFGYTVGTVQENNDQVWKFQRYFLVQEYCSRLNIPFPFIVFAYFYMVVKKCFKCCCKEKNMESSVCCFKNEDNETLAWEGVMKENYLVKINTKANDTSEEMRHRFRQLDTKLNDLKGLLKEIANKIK

CNCCC(Oc1ccc(C(F)(F)F)cc1)c1ccccc1 (centres unmarked) [FLX, Fluoxetine]
IC50 (TRPM8 (hTRPM8)): 20 ± 3.3 µM | IC50 (human TRPV3 (hTRPV3)): 10.2 ± 2.34 µM
